Earlier results in patent US6984402B2, “Chrono delivery formulations and method of treating atrial fibrillation” (Elite Laboratories, Inc., priority 2000, dated 2006).

COc1ccc([C@@H]2Sc3ccccc3N(CCN(C)C)C(=O)[C@@H]2OC(C)=O)cc1 [diltiazem]
half-life in blood (humans): 3 to 4 h
absolute bioavailability (oral, compared with intravenous administration): 40%
